According to patent US8299115B2, “Pyrrole-2-carboxamide derivatives as glucokinase activators, their process and pharmaceutical application” (priority 2007, dated 2012):

Tests used:
[1] = biological target: T1, human recombinant glucokinase (Homo sapiens, UniProt P35557); assay: Characterization of partial glucokinase activators: dose-dependent effect on S0.5 of glucokinase for glucose (% ΔS0.5); assay type: biochemical; details: for Emax: % change of S0.5 at saturating compound concentration, read-out: % Emax (with respect to % ΔS0.5); for EC50: sigmoidal fit of % ΔS0.5 vs log compound concentration, read-out: EC50 (with respect to % ΔS0.5)
T1 sequence (P35557 1-465): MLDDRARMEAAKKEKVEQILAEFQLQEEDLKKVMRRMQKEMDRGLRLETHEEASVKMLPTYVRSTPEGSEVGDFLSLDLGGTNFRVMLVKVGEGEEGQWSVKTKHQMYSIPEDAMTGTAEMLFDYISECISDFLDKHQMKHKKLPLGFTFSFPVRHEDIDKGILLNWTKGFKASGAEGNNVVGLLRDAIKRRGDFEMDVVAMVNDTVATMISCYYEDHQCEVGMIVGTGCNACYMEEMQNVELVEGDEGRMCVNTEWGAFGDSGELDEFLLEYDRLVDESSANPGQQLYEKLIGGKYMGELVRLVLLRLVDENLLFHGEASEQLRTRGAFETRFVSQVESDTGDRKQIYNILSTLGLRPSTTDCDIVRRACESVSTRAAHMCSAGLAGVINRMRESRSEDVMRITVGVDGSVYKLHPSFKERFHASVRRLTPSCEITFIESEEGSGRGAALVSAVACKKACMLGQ
Source text: (§1) Glucokinase (GK) activity, in vitro, has been measured using a coupled enzymatic assay (Ref: Hariharan et al (1997) Diabetes 46: 11-16). GK catalyzes the first step, the conversion of glucose to glucose-6-phosphate (G6P) in the presence of ATP. G6P in turn is converted by glucose-6-phosphate dehydrogenase (G6PD) to 6-phosphogluconate, a process that requires NAD, resulting in NADH formation. Since the GK-catalyzed step is the rate-limiting step of this coupled enzymatic process, the rate of accumulation of 6-phosphogluconate and NADH is directly proportional to the rate of glucose phosphorylation by GK. The rate of the GK-catalyzed reaction can therefore be measured by monitoring the increase in NADH absorbance at 340 nm.
(§2) The assay is carried out according to the protocol outlined in Hariharan et al (1997), Diabetes 46: 11-16. Briefly, the test compounds are incubated in a reaction mix containing 25 mM HEPES (pH 7.2), 10 mM MgCl2, 100 mM KCl, 5 mM ATP, 2 mM DTT, 0.5 mM NAD, 1 U/ml Leuconostoc mesenteroides G6PD, 0.3 U/ml of purified human recombinant GK, and different concentrations of glucose. Enzymatic activity is calculated from the initial reaction velocity, measured from the change in NADH absorbance as a function of time.
Compounds of interest from the general formula (I) are tested in the in vitro GK enzymatic assay to monitor dose-dependent effect on glucokinase activation (in kinetic mode), as described above, at various glucose concentrations. The maximum efficacy (Emax) and potency (EC50) for the assessment of partial glucokinase activation have been defined in our co-pending application 409/CHE/2007. The same definitions have also been used here. The S0.5 of glucokinase for glucose at different concentration of each compound of interest is calculated from the following modified version of the Michaelis-Menten equation, V=Vmax[S]^n/(S0.5^n+[S]^n), where [S] is the glucose concentration and n is the Hill coefficient (taken as 1.7 to account for the sigmoidal kinetics of glucokinase with respect to glucose). The S0.5 is plotted against the log of the compound concentration. The change in the S0.5 of glucokinase (ΔS0.5) for glucose is calculated by subtracting the S0.5 at each concentration of the compound from the S0.5 in the vehicle control. The ΔS0.5 is then normalized to a percent scale, where the S0.5 in the vehicle control is set to 0% and 0 mM glucose is set to 100%. The % ΔS0.5 is then plotted against the log of the compound concentration. The EC50 of % change in S0.5 is obtained from the sigmoidal fit of the data.

[2] = cited from earlier work
[3] = biological target: T1, human recombinant glucokinase; assay: Glucokinase activation, coupled enzymatic assay (G6PD/NADH) at 5 mM glucose; assay type: biochemical; details: read-out: EC50 for GK activation at 5 mM glucose
Source text: as §1, §2
Compounds described in formula (I), in concentration ranges from 1.0 nM to 500 μM, are tested in the purified human recombinant glucokinase assay described above.
A compound is considered to be a glucokinase activator if it, in its testable range of concentrations, yields a higher rate of glucose phosphorylation than in its absence at a particular glucose concentration, for example at 5 mM glucose.

Row | Compound | Emax [1] [%] | EC50 [1] [nM] | EC50 [3] [nM] | also measured
1 | CCOC(=O)Cc1nc(NC(=O)c2cc(CC(C)C)cn2Cc2ccc(F)c(F)c2)sc1Cl [Example A116, (5-Chloro-2-{[1-(3,4-difluoro-benzyl)-4-isobutyl-1H-pyrrole-2-carbonyl]-amino}-thiazol-4-yl)-acetic acid ethyl ester] | 70 | 300 | – | –
2 | O=C(Nc1ncc(F)s1)[C@H](CC1CCOCC1)c1ccc(S(=O)(=O)C2CC2)cc1 [PSN-GK1] | – | – | – | hypoglycemic potential ([2]; at higher dose, Fyfe 2007): hypoglycemic potential
3 | CS(=O)(=O)c1ccc(Cc2cc(C(=O)Nc3nc(CC(=O)O)c(Cl)s3)n(Cc3ccc(F)c(F)c3)c2)cc1 [Example E23, (5-Chloro-2-{[1-(3,4-difluoro-benzyl)-4-(4-methanesulfonyl-benzyl)-1H-pyrrole-2-carbonyl]-amino}-thiazol-4-yl)-acetic acid] | – | – | 300 | –
4 | Ro-28-1675 [reference compound] | – | – | – | S0.5 of glucokinase for glucose in presence of activator ([1]; drop from approximate 8 mM glucose, enzyme-based in vitro assay): ≤ 1.0 mM; hypoglycemia in animal efficacy models ([2]; Kamata et al 2004): cause hypoglycemia
5 | CC(C)C(O)c1cc(C(=O)Nc2nccs2)n(Cc2ccc(S(C)(=O)=O)cc2)c1 (stereo not shown) [Example C6, 4-(1-Hydroxy-2-methyl-propyl)-1-(4-methanesulfonyl-benzyl)-1H-pyrrole-2-carboxylic acid thiazol-2-ylamide] | – | – | 600 | –
6 | CC(C)C(O)c1cc(C(=O)Nc2ncc(F)s2)n(Cc2ccc(S(C)(=O)=O)cc2)c1 (stereo not shown) [Example C8, 4-(1-Hydroxy-2-methyl-propyl)-1-(4-methanesulfonyl-benzyl)-1H-pyrrole-2-carboxylic acid (5-fluoro-thiazol-2-yl)-amide] | – | – | 430 | –

Now from value to compound, other results behind:

Row | Emax [1] [%] | EC50 [1] [nM] | EC50 [3] [nM] | Compound | also measured
7 | 40 | 220 | – | CC(C)Cc1cc(C(=O)Nc2ncc(Cl)s2)n(Cc2ccc(F)c(C(F)(F)F)c2)c1 [Example A31, 1-(4-Fluoro-3-trifluoromethyl-benzyl)-4-isobutyl-1H-pyrrole-2-carboxylic acid (5-chloro-thiazol-2-yl)-amide] | –
8 | 65 | 200 | – | CC(C)Cc1cc(C(=O)Nc2ncc(Cl)s2)n(Cc2ccc(F)c(F)c2)c1 [Example A40, 1-(3,4-Difluoro-benzyl)-4-isobutyl-1H-pyrrole-2-carboxylic acid (5-chloro-thiazol-2-yl)-amide] | –
9 | – | – | 630 | CC(C)C(O)c1cc(C(=O)Nc2ncc(Cl)s2)n(Cc2ccc(F)c(F)c2)c1 (stereo not shown) [Example C2, 1-(3,4-Difluoro-benzyl)-4-(1-hydroxy-2-methyl-propyl)-1H-pyrrole-2-carboxylic acid (5-chloro-thiazol-2-yl)-amide] | –
